Source: ChEMBL document CHEMBL4507283, “Data for DCP probe BI-1935” (2021)

What was measured:
[1] = biological target: Casein kinase II subunit alpha' (Homo sapiens) (UniProt P19784); conditions: Compound concentration 1000.0 nM
[2] = biological target: Voltage-dependent L-type calcium channel subunit alpha-1C (phenylalkylamine site) (Rattus norvegicus, UniProt P22002); assay: CA+/PAASITE Eurofins-Panlabs selectivity data (BI); conditions: compound concentration 10 uM, read-out: % Ctrl
[3] = biological target: Platelet-derived growth factor receptor alpha (Homo sapiens) (UniProt P16234); conditions: Compound concentration 1000.0 nM
Sequence of Platelet-derived growth factor receptor alpha (Homo sapiens) (P16234 whole entry): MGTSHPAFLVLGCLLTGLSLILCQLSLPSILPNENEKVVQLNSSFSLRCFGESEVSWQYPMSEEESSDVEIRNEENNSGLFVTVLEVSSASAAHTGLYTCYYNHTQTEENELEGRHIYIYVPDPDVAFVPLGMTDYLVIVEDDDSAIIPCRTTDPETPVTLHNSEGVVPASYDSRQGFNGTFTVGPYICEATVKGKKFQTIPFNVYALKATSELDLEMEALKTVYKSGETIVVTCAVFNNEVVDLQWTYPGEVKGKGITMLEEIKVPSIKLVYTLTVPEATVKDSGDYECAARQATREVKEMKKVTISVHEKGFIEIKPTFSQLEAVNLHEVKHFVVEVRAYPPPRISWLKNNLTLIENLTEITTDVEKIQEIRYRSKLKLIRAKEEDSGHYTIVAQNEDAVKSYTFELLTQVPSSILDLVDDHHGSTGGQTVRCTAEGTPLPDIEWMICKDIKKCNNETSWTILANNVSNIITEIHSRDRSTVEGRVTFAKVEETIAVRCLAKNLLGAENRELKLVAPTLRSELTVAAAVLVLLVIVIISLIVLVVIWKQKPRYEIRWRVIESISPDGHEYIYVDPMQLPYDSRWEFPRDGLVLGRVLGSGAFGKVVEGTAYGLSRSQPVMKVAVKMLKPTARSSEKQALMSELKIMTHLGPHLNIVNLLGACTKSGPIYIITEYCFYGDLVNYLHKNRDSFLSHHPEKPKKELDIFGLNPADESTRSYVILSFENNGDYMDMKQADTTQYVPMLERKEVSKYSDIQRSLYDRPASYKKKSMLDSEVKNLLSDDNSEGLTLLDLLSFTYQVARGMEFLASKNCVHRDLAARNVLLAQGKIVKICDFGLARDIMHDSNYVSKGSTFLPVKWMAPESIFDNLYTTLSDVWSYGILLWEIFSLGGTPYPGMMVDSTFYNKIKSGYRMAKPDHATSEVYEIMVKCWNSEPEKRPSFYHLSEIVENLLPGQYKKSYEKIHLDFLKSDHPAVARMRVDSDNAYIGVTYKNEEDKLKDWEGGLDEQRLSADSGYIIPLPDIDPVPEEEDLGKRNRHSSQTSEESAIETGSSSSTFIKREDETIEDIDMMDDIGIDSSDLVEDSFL

[4] = biological target: T1, 5-hydroxytryptamine receptor 3A (Homo sapiens) (UniProt P46098); assay: 5HT3/HU Eurofins-Panlabs selectivity data (BI); conditions: Compound concentration 10.0 uM
T1 sequence (whole entry): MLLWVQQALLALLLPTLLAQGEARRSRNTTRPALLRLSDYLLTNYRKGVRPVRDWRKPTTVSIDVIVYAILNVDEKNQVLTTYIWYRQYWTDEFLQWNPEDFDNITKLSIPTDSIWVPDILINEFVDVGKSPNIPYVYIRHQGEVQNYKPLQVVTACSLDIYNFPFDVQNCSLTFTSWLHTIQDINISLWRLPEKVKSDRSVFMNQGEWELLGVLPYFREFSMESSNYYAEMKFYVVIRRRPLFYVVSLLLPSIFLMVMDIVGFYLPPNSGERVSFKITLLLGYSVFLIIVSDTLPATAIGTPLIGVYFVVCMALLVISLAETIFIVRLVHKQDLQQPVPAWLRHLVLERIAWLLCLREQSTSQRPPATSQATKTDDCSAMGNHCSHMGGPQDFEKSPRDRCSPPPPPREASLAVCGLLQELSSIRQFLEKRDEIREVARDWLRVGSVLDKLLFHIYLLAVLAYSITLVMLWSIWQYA

[5] = test system: Epidermal growth factor receptor (Homo sapiens), P00533 [T790M]; conditions: Compound concentration 1000.0 nM
[6] = biological target: Dual specificity protein kinase CLK1 (Homo sapiens) (UniProt P49759); conditions: Compound concentration 1000.0 nM
[7] = test system: Epidermal growth factor receptor (Homo sapiens), P00533 [G719S]; conditions: Compound concentration 1000.0 nM
[8] = biological target: Histamine H1 receptor (Homo sapiens) (UniProt P35367); assay: H1/H Eurofins-Panlabs selectivity data (BI); conditions: Compound concentration 10.0 uM
[9] = biological target: Serine/threonine-protein kinase/endoribonuclease IRE1 (Homo sapiens) (UniProt O75460); conditions: Compound concentration 1000.0 nM
[10] = biological target: cGMP-dependent protein kinase 1 (Homo sapiens) (UniProt Q13976); conditions: Compound concentration 1000.0 nM
[11] = biological target: Voltage-dependent N-type calcium channel subunit alpha-1B (Rattus norvegicus) (UniProt Q02294); assay: CA+/N/RA Eurofins-Panlabs selectivity data (BI); conditions: Compound concentration 10.0 uM
[12] = biological target: Leukocyte tyrosine kinase receptor (Homo sapiens) (UniProt P29376); conditions: Compound concentration 1000.0 nM
[13] = biological target: Type-2 angiotensin II receptor (Homo sapiens) (UniProt P50052); assay: AT2/HU Eurofins-Panlabs selectivity data (BI); conditions: Compound concentration 10.0 uM
[14] = biological target: Vascular endothelial growth factor receptor 1 (Homo sapiens) (UniProt P17948); conditions: Compound concentration 1000.0 nM
[15] = biological target: Serine/threonine-protein kinase 38 (Homo sapiens) (UniProt Q15208); conditions: Compound concentration 1000.0 nM
[16] = biological target: Phosphorylase b kinase regulatory subunit alpha, liver isoform (Homo sapiens) (UniProt P46019); conditions: Compound concentration 1000.0 nM
[17] = biological target: D(2) dopamine receptor (Homo sapiens) (UniProt P14416); conditions: Compound concentration 10.0 uM
Sequence of D(2) dopamine receptor (Homo sapiens) (P14416 whole entry): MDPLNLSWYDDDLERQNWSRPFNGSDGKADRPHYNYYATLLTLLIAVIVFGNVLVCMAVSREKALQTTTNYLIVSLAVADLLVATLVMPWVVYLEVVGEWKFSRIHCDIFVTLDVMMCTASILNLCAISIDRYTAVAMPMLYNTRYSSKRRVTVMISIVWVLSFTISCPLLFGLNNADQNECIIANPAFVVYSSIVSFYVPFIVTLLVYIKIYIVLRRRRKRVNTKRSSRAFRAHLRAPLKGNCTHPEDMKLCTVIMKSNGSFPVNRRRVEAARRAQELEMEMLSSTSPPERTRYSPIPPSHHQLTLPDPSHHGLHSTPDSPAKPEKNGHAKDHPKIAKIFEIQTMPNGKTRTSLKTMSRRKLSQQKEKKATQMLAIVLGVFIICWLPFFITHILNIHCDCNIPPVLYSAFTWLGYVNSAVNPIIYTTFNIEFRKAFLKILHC

[18] = biological target: Serine/threonine-protein kinase Nek3 (Homo sapiens) (UniProt P51956); conditions: Compound concentration 1000.0 nM
[19] = biological target: Hepatocyte growth factor receptor (Homo sapiens) (UniProt P08581); conditions: Compound concentration 1000.0 nM
[20] = biological target: Atypical kinase COQ8A, mitochondrial (Homo sapiens) (UniProt Q8NI60); conditions: Compound concentration 1000.0 nM
[21] = biological target: Angiotensin-converting enzyme (Oryctolagus cuniculus) (UniProt P12822); assay: ANGIOCONVENZ Eurofins-Panlabs selectivity data (BI); conditions: Compound concentration 10.0 uM
[22] = biological target: Muscarinic acetylcholine receptor (Rattus norvegicus) (UniProt P08482+P08483+P08485+P08911+P10980); assay: MUSCARIN/NS Eurofins-Panlabs selectivity data (BI); assay type: protein assay; conditions: Compound concentration 10.0 uM
[23] = biological target: Receptor tyrosine-protein kinase erbB-3 (Homo sapiens) (UniProt P21860); conditions: Compound concentration 1000.0 nM
[24] = test system: Epidermal growth factor receptor (Homo sapiens), P00533 [UNDEFINED MUTATION]; conditions: Compound concentration 1000.0 nM
[25] = biological target: Mast/stem cell growth factor receptor Kit (Homo sapiens) (UniProt P10721); conditions: Compound concentration 1000.0 nM
[26] = biological target: cGMP-dependent protein kinase 2 (Homo sapiens) (UniProt Q13237); conditions: Compound concentration 1000.0 nM
Sequence of cGMP-dependent protein kinase 2 (Homo sapiens) (Q13237 whole entry): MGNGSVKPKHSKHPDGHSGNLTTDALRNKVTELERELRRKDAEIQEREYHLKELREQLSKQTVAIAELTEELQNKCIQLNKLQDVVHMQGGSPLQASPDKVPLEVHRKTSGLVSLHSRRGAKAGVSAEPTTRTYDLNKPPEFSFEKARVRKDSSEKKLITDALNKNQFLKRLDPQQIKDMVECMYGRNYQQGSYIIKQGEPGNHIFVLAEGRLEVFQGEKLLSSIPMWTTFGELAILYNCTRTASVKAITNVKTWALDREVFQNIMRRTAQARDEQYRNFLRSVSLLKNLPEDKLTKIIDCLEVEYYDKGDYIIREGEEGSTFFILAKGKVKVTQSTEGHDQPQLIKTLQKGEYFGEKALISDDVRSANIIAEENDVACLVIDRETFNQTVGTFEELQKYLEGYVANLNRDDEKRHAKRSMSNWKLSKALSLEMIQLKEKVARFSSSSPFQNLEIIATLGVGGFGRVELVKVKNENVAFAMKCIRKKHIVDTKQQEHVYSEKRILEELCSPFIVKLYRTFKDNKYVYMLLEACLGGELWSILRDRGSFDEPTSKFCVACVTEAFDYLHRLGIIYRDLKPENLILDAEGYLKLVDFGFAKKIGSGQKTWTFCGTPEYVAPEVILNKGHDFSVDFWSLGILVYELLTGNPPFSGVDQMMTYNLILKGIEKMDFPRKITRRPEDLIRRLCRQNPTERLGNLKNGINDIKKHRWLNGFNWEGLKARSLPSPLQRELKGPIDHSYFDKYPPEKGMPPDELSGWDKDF

[27] = biological target: Beta-adrenergic receptor kinase 1 (Homo sapiens) (UniProt P25098); conditions: Compound concentration 1000.0 nM
[28] = biological target: Mitogen-activated protein kinase kinase kinase 20 (Homo sapiens) (UniProt Q9NYL2); conditions: Compound concentration 1000.0 nM
[29] = biological target: Prostaglandin G/H synthase 1 (Homo sapiens) (UniProt P23219); assay: COX-1 Eurofins-Panlabs selectivity data (BI); conditions: Compound concentration 10.0 uM
[30] = biological target: Serine/threonine-protein kinase pim-2 (Homo sapiens) (UniProt Q9P1W9); conditions: Compound concentration 1000.0 nM
[31] = biological target: Serine/threonine-protein kinase PAK 2 (Homo sapiens) (UniProt Q13177); conditions: Compound concentration 1000.0 nM
[32] = biological target: Calcium/calmodulin-dependent protein kinase type 1G (Homo sapiens) (UniProt Q96NX5); conditions: Compound concentration 1000.0 nM
[33] = biological target: STE20/SPS1-related proline-alanine-rich protein kinase (Homo sapiens) (UniProt Q9UEW8); conditions: Compound concentration 1000.0 nM
[34] = biological target: Activin receptor type-1B (Homo sapiens) (UniProt P36896); conditions: Compound concentration 1000.0 nM
[35] = biological target: Calcium/calmodulin-dependent protein kinase type 1 (Homo sapiens) (UniProt Q14012); conditions: Compound concentration 1000.0 nM
[36] = biological target: D(2) dopamine receptor (Homo sapiens) (UniProt P14416); assay: D2L/H Eurofins-Panlabs selectivity data (BI); conditions: Compound concentration 10.0 uM
[37] = test system: Receptor-type tyrosine-protein kinase FLT3 (Homo sapiens), P36888 [D835H]; conditions: Compound concentration 1000.0 nM
[38] = biological target: Ephrin type-A receptor 2 (Homo sapiens) (UniProt P29317); conditions: Compound concentration 1000.0 nM

Sequence of Casein kinase II subunit alpha' (Homo sapiens) (P19784 whole entry, looked up): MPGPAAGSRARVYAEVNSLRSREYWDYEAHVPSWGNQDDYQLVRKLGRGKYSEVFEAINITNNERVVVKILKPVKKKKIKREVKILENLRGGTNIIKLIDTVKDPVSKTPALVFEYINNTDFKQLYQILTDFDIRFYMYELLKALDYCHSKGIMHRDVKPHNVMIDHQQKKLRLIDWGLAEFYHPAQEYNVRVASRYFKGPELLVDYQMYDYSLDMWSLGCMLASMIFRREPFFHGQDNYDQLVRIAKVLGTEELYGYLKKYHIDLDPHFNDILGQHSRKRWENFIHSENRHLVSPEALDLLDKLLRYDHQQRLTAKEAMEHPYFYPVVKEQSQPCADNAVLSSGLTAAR
Sequence of Voltage-dependent L-type calcium channel subunit alpha-1C (phenylalkylamine site) (P22002 whole entry): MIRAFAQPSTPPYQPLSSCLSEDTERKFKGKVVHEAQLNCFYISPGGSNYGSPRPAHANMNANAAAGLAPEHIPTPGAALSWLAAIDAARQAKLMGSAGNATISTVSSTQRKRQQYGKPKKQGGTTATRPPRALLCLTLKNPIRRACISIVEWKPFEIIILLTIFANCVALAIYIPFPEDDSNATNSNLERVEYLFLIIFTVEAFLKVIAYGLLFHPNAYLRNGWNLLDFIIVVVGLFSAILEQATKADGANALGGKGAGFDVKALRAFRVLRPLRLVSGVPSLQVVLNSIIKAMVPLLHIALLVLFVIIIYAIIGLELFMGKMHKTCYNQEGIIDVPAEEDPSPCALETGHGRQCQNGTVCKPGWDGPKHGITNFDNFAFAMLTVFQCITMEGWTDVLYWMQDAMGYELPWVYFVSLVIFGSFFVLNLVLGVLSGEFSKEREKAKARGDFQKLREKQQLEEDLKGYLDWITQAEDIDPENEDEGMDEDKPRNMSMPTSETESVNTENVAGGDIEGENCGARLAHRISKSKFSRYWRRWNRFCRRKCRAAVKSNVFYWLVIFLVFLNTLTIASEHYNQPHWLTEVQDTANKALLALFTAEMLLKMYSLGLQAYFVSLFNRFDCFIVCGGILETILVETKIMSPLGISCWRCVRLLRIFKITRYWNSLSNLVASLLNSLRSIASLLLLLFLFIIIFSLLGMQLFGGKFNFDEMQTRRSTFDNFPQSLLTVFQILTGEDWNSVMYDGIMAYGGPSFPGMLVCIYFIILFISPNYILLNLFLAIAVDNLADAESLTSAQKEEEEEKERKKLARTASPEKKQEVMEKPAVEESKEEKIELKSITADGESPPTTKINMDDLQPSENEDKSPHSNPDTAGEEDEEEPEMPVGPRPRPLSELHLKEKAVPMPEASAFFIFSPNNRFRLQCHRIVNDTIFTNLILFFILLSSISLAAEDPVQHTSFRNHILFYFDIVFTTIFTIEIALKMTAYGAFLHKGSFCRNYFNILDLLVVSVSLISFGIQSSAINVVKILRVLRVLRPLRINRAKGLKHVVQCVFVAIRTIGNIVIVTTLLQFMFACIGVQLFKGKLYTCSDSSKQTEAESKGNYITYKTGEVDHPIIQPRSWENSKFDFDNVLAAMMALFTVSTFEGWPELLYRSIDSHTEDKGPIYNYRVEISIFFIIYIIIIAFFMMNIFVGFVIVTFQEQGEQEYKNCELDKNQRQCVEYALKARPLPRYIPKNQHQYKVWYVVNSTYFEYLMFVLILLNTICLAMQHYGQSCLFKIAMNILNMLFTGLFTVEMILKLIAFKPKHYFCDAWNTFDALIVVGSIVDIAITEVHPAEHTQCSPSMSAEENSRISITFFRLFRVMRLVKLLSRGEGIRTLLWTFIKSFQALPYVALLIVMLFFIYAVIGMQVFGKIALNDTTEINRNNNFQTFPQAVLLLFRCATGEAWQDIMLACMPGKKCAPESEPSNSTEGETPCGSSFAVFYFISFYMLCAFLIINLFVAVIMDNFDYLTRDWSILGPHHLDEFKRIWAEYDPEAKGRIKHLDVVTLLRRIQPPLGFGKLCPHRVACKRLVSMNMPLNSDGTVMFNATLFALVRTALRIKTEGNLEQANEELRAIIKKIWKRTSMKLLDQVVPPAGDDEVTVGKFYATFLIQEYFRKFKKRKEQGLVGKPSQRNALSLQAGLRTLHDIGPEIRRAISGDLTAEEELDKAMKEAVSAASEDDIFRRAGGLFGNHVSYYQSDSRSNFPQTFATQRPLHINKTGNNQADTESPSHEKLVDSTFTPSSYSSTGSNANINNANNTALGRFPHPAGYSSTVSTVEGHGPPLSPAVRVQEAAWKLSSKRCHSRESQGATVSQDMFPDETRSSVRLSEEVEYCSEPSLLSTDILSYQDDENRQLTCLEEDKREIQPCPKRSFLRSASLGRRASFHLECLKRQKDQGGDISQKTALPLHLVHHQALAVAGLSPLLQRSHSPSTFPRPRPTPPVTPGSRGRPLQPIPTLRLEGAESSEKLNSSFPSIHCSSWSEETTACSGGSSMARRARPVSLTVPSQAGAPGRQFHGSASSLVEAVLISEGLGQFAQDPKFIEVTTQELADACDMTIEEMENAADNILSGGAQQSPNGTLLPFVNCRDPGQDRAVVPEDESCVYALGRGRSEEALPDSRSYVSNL

CCOCCn1cc(C(=O)Nc2ccc(-n3nc(-c4cccnc4)cc3C(F)(F)F)cn2)ccc1=O [BI 1935] was tested. Which residual activity [1] did it give?
Its residual activity is 100%.

What about the activity at 10 µM [2] of the same molecule?
The activity at 10 µM was 88.5% (not active).

And the residual activity [3]?
The residual activity was 68%.

And the residual activity [4]?
The residual activity was 117%.

What about the residual activity [5] of the same molecule?
Its residual activity is 100%.

And the residual activity [6]?
The residual activity was 100%.

What about the residual activity [7] of the same molecule?
The residual activity was 100%.

What about the residual activity [8] of the same molecule?
The residual activity was 98%.

And the residual activity [9]?
The residual activity was 87%.

And the residual activity [10]?
Its residual activity is 98%.

What about the residual activity [11] of the same molecule?
The residual activity was 102%.

And the residual activity [12]?
The residual activity was 100%.

And the residual activity [13]?
Its residual activity is 97%.

What about the residual activity [14] of the same molecule?
Its residual activity is 100%.

What about the residual activity [15] of the same molecule?
The residual activity was 91%.

What about the residual activity [16] of the same molecule?
The residual activity was 100%.

And the inhibition [17]?
The inhibition was -5.62%.

And the residual activity [18]?
Its residual activity is 100%.

What about the residual activity [19] of the same molecule?
Its residual activity is 95%.

What about the residual activity [20] of the same molecule?
The residual activity was 90%.

And the residual activity [21]?
Its residual activity is 101%.

What about the residual activity [22] of the same molecule?
The residual activity was 112%.

What about the residual activity [23] of the same molecule?
The residual activity was 87%.

And the residual activity [24]?
The residual activity was 92%.

And the residual activity [25]?
Its residual activity is 89%.

And the residual activity [26]?
Its residual activity is 100%.

And the residual activity [27]?
The residual activity was 75%.

And the residual activity [28]?
Its residual activity is 73%.

And the residual activity [29]?
The residual activity was 163%.

What about the residual activity [30] of the same molecule?
The residual activity was 100%.

And the residual activity [31]?
The residual activity was 84%.

And the residual activity [32]?
Its residual activity is 100%.

And the residual activity [33]?
The residual activity was 100%.

And the residual activity [34]?
Its residual activity is 79%.

And the residual activity [35]?
Its residual activity is 100%.

What about the residual activity [36] of the same molecule?
Its residual activity is 97%.

And the residual activity [37]?
The residual activity was 87%.

What about the residual activity [38] of the same molecule?
The residual activity was 93%.
